From patent publication US11999716B2, “WDR5 inhibitors and modulators” (priority 2018, dated 2024)

Test system: MV4:11 human cancer cell lines
Assay: Cellular viability / anti-proliferative activity, CellTiter-Glo, 5 day protocol
Assay type: cell-based
Conditions: Homo sapiens, MV4-11, 120 h, MV4:11 cells; 5 day incubation; CellTiter-Glo; mean of minimum two replicates; read-out: GI50 on cellular proliferation of MV4:11 human cancer cell lines
Procedure, shortened: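 Compounds were tested over 22 two-fold dilutions starting at 30 μM in 0.3% DMSO, with 200 cells per well (7200 cells/mL). Viability was measured by CellTiter-Glo luminescence at day 5.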

SMILES	GI50 [nM]
COc1cc(CN2CCc3c(cc(Cn4ccoc4=N)cc3-c3ccc(F)cc3C)C2=O)cc(OC)c1 [Example 81, 2-(3,5-Dimethoxybenzyl)-5-(4-fluoro-2-methylphenyl)-7-((2-iminooxazol-3(2H)-yl)methyl)-3,4-dihydroisoquinolin-1(2H)-one]	155
COc1cc(CN2CCc3c(cc(CN4CCOC4=N)cc3-c3cccnc3C(F)(F)F)C2=O)cc(OC)c1 [Example 82, 2-(3,5-Dimethoxybenzyl)-7-((2-iminooxazolidin-3-yl)methyl)-5-(2-(trifluoromethyl)pyridin-3-yl)-3,4-dihydroisoquinolin-1(2H)-one]	55
COc1ccnc(CN2CCc3c(cc(CN4CCOC4=N)cc3-c3cn(C)nc3C(F)(F)F)C2=O)c1 [Example 83, 7-((2-Iminooxazolidin-3-yl)methyl)-2-((4-methoxypyridin-2-yl)methyl)-5-(1-methyl-3-(trifluoromethyl)-1H-pyrazol-4-yl)-3,4-dihydroisoquinolin-1(2H)-one]	< 50
COc1ccnc(CN2CCc3c(cc(Cn4ccoc4=N)cc3-c3cn(C)nc3C(F)(F)F)C2=O)c1 [Example 84, 7-((2-Iminooxazol-3(2H)-yl)methyl)-2-((4-methoxypyridin-2-yl)methyl)-5-(1-methyl-3-(trifluoromethyl)-1H-pyrazol-4-yl)-3,4-dihydroisoquinolin-1(2H)-one]	< 50
COc1ccnc(CN2CCc3c(cc(Cn4ccoc4=N)cc3-c3cn(C)nc3C)C2=O)c1 [Example 85, 5-(1,3-Dimethyl-1H-pyrazol-4-yl)-7-((2-iminooxazol-3(2H)-yl)methyl)-2-((4-methoxypyridin-2-yl)methyl)-3,4-dihydroisoquinolin-1(2H)-one]	57
CCn1cc(-c2cc(CN3CCOC3=N)cc3c2CCN(Cc2cc(OC)ccn2)C3=O)cn1 [Example 86, 5-(1-Ethyl-1H-pyrazol-4-yl)-7-((2-iminooxazolidin-3-yl)methyl)-2-((4-methoxypyridin-2-yl)methyl)-3,4-dihydroisoquinolin-1(2H)-one]	740
CCn1cc(-c2cc(Cn3ccoc3=N)cc3c2CCN(Cc2cc(OC)ccn2)C3=O)cn1 [Example 87, 5-(1-Ethyl-1H-pyrazol-4-yl)-7-((2-iminooxazol-3(2H)-yl)methyl)-2-((4-methoxypyridin-2-yl)methyl)-3,4-dihydroisoquinolin-1(2H)-one]	837
Cc1ccnc(CN2CCc3c(cc(Cn4ccoc4=N)cc3-c3cn(C)nc3C(F)(F)F)C2=O)c1 [Example 88, 7-((2-Iminooxazol-3(2H)-yl)methyl)-5-(1-methyl-3-(trifluoromethyl)-1H-pyrazol-4-yl)-2-((4-methylpyridin-2-yl)methyl)-3,4-dihydroisoquinolin-1(2H)-one]	< 50
CCn1cc(-c2cc(Cn3ccoc3=N)cc3c2CCN(Cc2cc(OC)ccn2)C3=O)c(C(F)(F)F)n1 [Example 89, 5-(1-Ethyl-3-(trifluoromethyl)-1H-pyrazol-4-yl)-7-((2-iminooxazol-3(2H)-yl)methyl)-2-((4-methoxypyridin-2-yl)methyl)-3,4-dihydroisoquinolin-1(2H)-one]	< 50
CCn1cc(-c2cc(Cn3ccoc3=N)cc3c2CCN(Cc2cc(OC)ccn2)C3=O)c(C)n1 [Example 90, 5-(1-Ethyl-3-methyl-1H-pyrazol-4-yl)-7-((2-iminooxazol-3(2H)-yl)methyl)-2-((4-methoxypyridin-2-yl)methyl)-3,4-dihydroisoquinolin-1(2H)-one]	209
CCn1cc(-c2cc(Cn3ccoc3=N)cc3c2CCN([C@@H](C)c2cc(OC)ccn2)C3=O)c(C(F)(F)F)n1 [Example 91, (S)-5-(1-Ethyl-3-(trifluoromethyl)-1H-pyrazol-4-yl)-7-((2-iminooxazol-3(2H)-yl)methyl)-2-(1-(4-methoxypyridin-2-yl)ethyl)-3,4-dihydroisoquinolin-1(2H)-one]	< 50
COc1cc(CN2CCc3c(OC4CCC4)cc(Cn4ccoc4=N)cc3C2=O)cc(OC)c1 [Example 92, 5-Cyclobutoxy-2-(3,5-dimethoxybenzyl)-7-((2-iminooxazol-3(2H)-yl)methyl)-3,4-dihydroisoquinolin-1(2H)-one]	> 938
COc1ccnc([C@H](C)N2CCc3c(cc(Cn4ccoc4=N)cc3-c3cn(C)nc3C(F)(F)F)C2=O)c1 [Example 93, (S)-7-((2-Iminooxazol-3(2H)-yl)methyl)-2-(1-(4-methoxypyridin-2-yl)ethyl)-5-(1-methyl-3-(trifluoromethyl)-1H-pyrazol-4-yl)-3,4-dihydroisoquinolin-1(2H)-one]	< 50
CCn1cc(-c2cc(Cn3ccoc3=N)cc3c2CCN(Cc2cc(C)nn2C)C3=O)c(C(F)(F)F)n1 [Example 94, 2-((1,3-Dimethyl-1H-pyrazol-5-yl)methyl)-5-(1-ethyl-3-(trifluoromethyl)-1H-pyrazol-4-yl)-7-((2-iminooxazol-3(2H)-yl)methyl)-3,4-dihydroisoquinolin-1(2H)-one]	159
CCn1cc(-c2cc(CN3CCOC3=N)cc3c2CCN(Cc2cc(C)nn2C)C3=O)c(C(F)(F)F)n1 [Example 95, 2-((1,3-Dimethyl-1H-pyrazol-5-yl)methyl)-5-(1-ethyl-3-(trifluoromethyl)-1H-pyrazol-4-yl)-7-((2-iminooxazolidin-3-yl)methyl)-3,4-dihydroisoquinolin-1(2H)-one]	197
CCn1cc(CN2CCc3c(cc(Cn4ccoc4=N)cc3-c3cn(CC)nc3C(F)(F)F)C2=O)nn1 [Example 96, 2-((1-Ethyl-1H-1,2,3-triazol-4-yl)methyl)-5-(1-ethyl-3-(trifluoromethyl)-1H-pyrazol-4-yl)-7-((2-iminooxazol-3(2H)-yl)methyl)-3,4-dihydroisoquinolin-1(2H)-one]	< 50
CCn1cc(-c2cc(Cn3ccoc3=N)cc3c2CCN(Cc2cn(C)nc2C)C3=O)c(C(F)(F)F)n1 [Example 97, 2-((1,3-Dimethyl-1H-pyrazol-4-yl)methyl)-5-(1-ethyl-3-(trifluoromethyl)-1H-pyrazol-4-yl)-7-((2-iminooxazol-3(2H)-yl)methyl)-3,4-dihydroisoquinolin-1(2H)-one]	212
CCn1cc(-c2cc(CN3CCOC3=N)cc3c2CCN(Cc2cn(C)nc2C)C3=O)c(C(F)(F)F)n1 [Example 98, 2-((1,3-Dimethyl-1H-pyrazol-4-yl)methyl)-5-(1-ethyl-3-(trifluoromethyl)-1H-pyrazol-4-yl)-7-((2-iminooxazolidin-3-yl)methyl)-3,4-dihydroisoquinolin-1(2H)-one]	207
CCn1cc(CN2CCc3c(cc(CN4CCOC4=N)cc3-c3cn(CC)nc3C(F)(F)F)C2=O)nn1 [Example 99, 2-((1-Ethyl-1H-1,2,3-triazol-4-yl)methyl)-5-(1-ethyl-3-(trifluoromethyl)-1H-pyrazol-4-yl)-7-((2-iminooxazolidin-3-yl)methyl)-3,4-dihydroisoquinolin-1(2H)-one]	77
COc1cc(CN2CCc3c(cc(CN4CCSC4=N)cc3-c3ccc(F)cc3C)C2=O)cc(OC)c1 [Example 100, 2-(3,5-Dimethoxybenzyl)-5-(4-fluoro-2-methylphenyl)-7-((2-iminothiazolidin-3-yl)methyl)-3,4-dihydroisoquinolin-1(2H)-one]	269
COc1ccnc(CN2CCc3c(cc(Cn4ccsc4=N)cc3-c3cn(C)nc3C(F)(F)F)C2=O)c1 [Example 101, 7-((2-Iminothiazol-3(2H)-yl)methyl)-2-((4-methoxypyridin-2-yl)methyl)-5-(1-methyl-3-(trifluoromethyl)-1H-pyrazol-4-yl)-3,4-dihydroisoquinolin-1(2H)-one]	< 50
CCn1cc(-c2cc(Cn3ccsc3=N)cc3c2CCN(Cc2cc(OC)ccn2)C3=O)cn1 [Example 102, 5-(1-ethyl-1H-pyrazol-4-yl)-7-((2-iminothiazol-3(2H)-yl)methyl)-2-((4-methoxypyridin-2-yl)methyl)-3,4-dihydroisoquinolin-1(2H)-one]	> 938
COc1ccnc(CN2CCc3c(cc(Cn4cc(F)sc4=N)cc3-c3cn(C)nc3C(F)(F)F)C2=O)c1 [Example 103, 7-((5-Fluoro-2-iminothiazol-3(2H)-yl)methyl)-2-((4-methoxypyridin-2-yl)methyl)-5-(1-methyl-3-(trifluoromethyl)-1H-pyrazol-4-yl)-3,4-dihydroisoquinolin-1(2H)-one]	> 938
CCn1cc(-c2cc(Cn3ccsc3=N)cc3c2CCN([C@@H](C)c2cc(OC)ccn2)C3=O)c(C(F)(F)F)n1 [Example 104, (S)-5-(1-Ethyl-3-(trifluoromethyl)-1H-pyrazol-4-yl)-7-((2-iminothiazol-3(2H)-yl)methyl)-2-(1-(4-methoxypyridin-2-yl)ethyl)-3,4-dihydroisoquinolin-1(2H)-one]	< 50
COc1ccnc([C@H](C)N2CCc3c(cc(Cn4ccsc4=N)cc3-c3cn(C)nc3C(F)(F)F)C2=O)c1 [Example 105, (S)-7-((2-iminothiazol-3(2H)-yl)methyl)-2-(1-(4-methoxypyridin-2-yl)ethyl)-5-(1-methyl-3-(trifluoromethyl)-1H-pyrazol-4-yl)-3,4-dihydroisoquinolin-1(2H)-one]	< 50
COc1ccnc(CN2CCc3c(cc(CN4CCCC4=N)cc3-c3cn(C)nc3C(F)(F)F)C2=O)c1 [Example 108, 7-((2-Iminopyrrolidin-1-yl)methyl)-2-((4-methoxypyridin-2-yl)methyl)-5-(1-methyl-3-(trifluoromethyl)-1H-pyrazol-4-yl)-3,4-dihydroisoquinolin-1(2H)-one]	181
COc1cc(CN2CCc3c(cc(CN4CCCC4=N)cc3-c3cn(C)nc3C(F)(F)F)C2=O)cc(OC)c1 [Example 109, 2-(3,5-Dimethoxybenzyl)-7-((2-iminopyrrolidin-1-yl)methyl)-5-(1-methyl-3-(trifluoromethyl)-1H-pyrazol-4-yl)-3,4-dihydroisoquinolin-1(2H)-one]	104
COc1ccnc(CN2CCc3c(cc(CN4CCCC4=N)cc3-c3cn(C)nc3C)C2=O)c1 [Example 110, 5-(1,3-Dimethyl-1H-pyrazol-4-yl)-7-((2-iminopyrrolidin-1-yl)methyl)-2-((4-methoxypyridin-2-yl)methyl)-3,4-dihydroisoquinolin-1(2H)-one]	> 938
